Source: the supplement of paper PMC10627819

Experiments:
[1] = tested on: B. subtilis 168; assay: fitness (endpoint OD595 vs no drug) (fraction); higher = more growth
In short: (§1)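 Plates with 384 wells were inoculated at OD595 0.01 using 30 µl of TSB, LB Lennox or CY, or 55 µl for S. pneumoniae. Incubation was at 37 °C, with OD595 measured every 30 min for 14 h. Fitness is the stationary-phase transition optical density over the robust mean of no-drug control wells, after first-reading background subtraction; it is capped at 1.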

[2] = tested on: S. pneumoniae D39V; assay: as above
In short: as §1

[3] = tested on: S. aureus Newman; assay: as above
In short: as §1

[4] = tested on: S. aureus DSM 20231; assay: as above
In short: as §1

[5] = tested on: B. subtilis 168; assay: Bliss interaction score (quartile over a dose matrix) (fitness difference); higher = more antagonism (negative = synergy)
In short: (§2)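 The Bliss score takes observed fitness and subtracts the expected fitness, calculated as a product of single-drug fitness values. Those single-drug values were inferred from the combination data. Fitness is OD595 at entry into stationary phase divided by the plate's robust no-drug mean, capped at 1, and the score is summarised by quartiles across technical, biological and donor/recipient replicates.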

[6] = tested on: S. pneumoniae D39V; assay: as above
In short: as §2

[7] = tested on: S. aureus Newman; assay: as above
In short: as §2

[8] = tested on: S. aureus DSM 20231; assay: as above
In short: as §2

[9] = first compound 0.625 µg/mL, partner 1.25 µg/mL
[10] = first compound 0.625 µg/mL, partner 2.5 µg/mL
[11] = first compound 0.625 µg/mL, partner 5 µg/mL
[12] = first compound 1.25 µg/mL, partner 1.25 µg/mL
[13] = first compound 1.25 µg/mL, partner 2.5 µg/mL
[14] = first compound 1.25 µg/mL, partner 5 µg/mL
[15] = first compound 2.5 µg/mL, partner 1.25 µg/mL
[16] = first compound 2.5 µg/mL, partner 2.5 µg/mL
[17] = first compound 0.625 µg/mL, partner 0.15 µg/mL
[18] = first compound 0.625 µg/mL, partner 0.3 µg/mL
[19] = first compound 0.625 µg/mL, partner 0.6 µg/mL
[20] = first compound 1.25 µg/mL, partner 0.15 µg/mL
[21] = first compound 1.25 µg/mL, partner 0.3 µg/mL
[22] = first compound 1.25 µg/mL, partner 0.6 µg/mL
[23] = first compound 2.5 µg/mL, partner 0.15 µg/mL
[24] = first compound 2.5 µg/mL, partner 0.3 µg/mL
[25] = first compound 2.5 µg/mL, partner 0.6 µg/mL
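Throughout, for Bliss interaction score (quartile over a dose matrix): first quartile when negative (synergy) and third quartile when positive (antagonism).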

COc1cccc2c1C(=O)c1c(O)c3c(c(O)c1C2=O)C[C@@](O)(C(=O)CO)C[C@@H]3O[C@H]1C[C@H](N)[C@H](O)[C@H](C)O1 [Doxorubicin] + CN1C2=CC=CC=C2N=C3C1=CC=CC3=O [Pyocyanin]
fitness [1, 9]: 0.888
fitness [1, 10]: 0.878
fitness [1, 11]: 0.684
fitness [1, 12]: 0.853
fitness [1, 13]: 0.841
fitness [1, 14]: 0.625
fitness [1, 15]: 0.631
fitness [1, 16]: 0.54
fitness ([2]; first compound 0.25 µg/mL, partner 0.325 µg/mL): 0.986
fitness ([2]; first compound 0.25 µg/mL, partner 0.65 µg/mL): 0.92
fitness ([2]; first compound 0.25 µg/mL, partner 1.3 µg/mL): 0.766
fitness ([2]; first compound 0.5 µg/mL, partner 0.325 µg/mL): ≥ 1
fitness ([2]; first compound 0.5 µg/mL, partner 0.65 µg/mL): 0.938
fitness ([2]; first compound 0.5 µg/mL, partner 1.3 µg/mL): 0.773
fitness ([2]; first compound 1 µg/mL, partner 0.325 µg/mL): 0.942
fitness ([2]; first compound 1 µg/mL, partner 0.65 µg/mL): 0.868
fitness ([2]; first compound 1 µg/mL, partner 1.3 µg/mL): 0.729
fitness [3, 9]: 0.733
fitness [3, 10]: 0.687
fitness [3, 11]: 0.438
fitness [3, 12]: 0.716
fitness [3, 13]: 0.639
fitness [3, 15]: 0.674
fitness [3, 16]: 0.584
fitness [4, 9]: 0.863
fitness [4, 10]: 0.827
fitness [4, 11]: 0.578
fitness [4, 12]: 0.857
fitness [4, 13]: 0.865
fitness [4, 14]: 0.641
fitness [4, 15]: 0.744
fitness [4, 16]: 0.699
fitness ([4]; first compound 2.5 µg/mL, partner 5 µg/mL): 0.487
Bliss interaction score [5]: 0.0456
Bliss interaction score [6]: 0.0322
Bliss interaction score [7]: -0.0556
Bliss interaction score [8]: -0.0672

COc1cccc2c1C(=O)c1c(O)c3c(c(O)c1C2=O)C[C@@](O)(C(=O)CO)C[C@@H]3O[C@H]1C[C@H](N)[C@H](O)[C@H](C)O1 [Doxorubicin] + CN(N=O)C(=O)N[C@@H](C=O)[C@@H](O)[C@H](O)[C@H](O)CO [Streptozotocin]
fitness [1, 17]: 0.961
fitness [1, 18]: ≥ 1
fitness [1, 19]: 0.993
fitness [1, 20]: 0.957
fitness [1, 21]: 0.956
fitness [1, 22]: 0.939
fitness [1, 23]: 0.663
fitness [1, 24]: 0.582
fitness [1, 25]: 0.627
fitness ([2]; first compound 0.25 µg/mL, partner 1.2 µg/mL): 0.919
fitness ([2]; first compound 0.25 µg/mL, partner 2.4 µg/mL): 0.898
fitness ([2]; first compound 0.25 µg/mL, partner 4.8 µg/mL): 0.966
fitness ([2]; first compound 0.5 µg/mL, partner 1.2 µg/mL): 0.929
fitness ([2]; first compound 0.5 µg/mL, partner 2.4 µg/mL): 0.919
fitness ([2]; first compound 0.5 µg/mL, partner 4.8 µg/mL): 0.972
fitness ([2]; first compound 1 µg/mL, partner 1.2 µg/mL): 0.852
fitness ([2]; first compound 1 µg/mL, partner 2.4 µg/mL): 0.866
fitness ([2]; first compound 1 µg/mL, partner 4.8 µg/mL): 0.91
fitness [3, 17]: 0.702
fitness [3, 18]: 0.656
fitness [3, 19]: 0.607
fitness [3, 20]: 0.7
fitness [3, 21]: 0.68
fitness [3, 22]: 0.604
fitness [3, 23]: 0.709
fitness [3, 24]: 0.646
fitness [3, 25]: 0.541
fitness [4, 17]: 0.762
fitness [4, 18]: 0.741
fitness [4, 19]: 0.631
fitness [4, 20]: 0.828
fitness [4, 21]: 0.726
fitness [4, 22]: 0.651
fitness [4, 23]: 0.787
fitness [4, 24]: 0.746
fitness [4, 25]: 0.595
Bliss interaction score [5]: 0.0771
Bliss interaction score [6]: 0.0618
Bliss interaction score [7]: 0.11
Bliss interaction score [8]: -0.0251
